Laboratory results: US20260364072A1, “METHODS FOR PROMOTING EXPANSION OF HUMAN CD34+ CELLS IN VIVO AND FOR PROMOTING NEURAL REGENERATION” (THE REGENTS OF THE UNIVERSITY OF CALIFORNIA, priority 2023, published 2026)

What was measured:
[1] = tested on: RBL-1 leukemia cells (Sf3b family members); experiment: Splice isoform biomarker qRT-PCR in rat RBL-1 leukemia cells; type: cell-based; settings: 1 μM, 4 hr; different lots of Rebecsinib
Procedure: (§1) For quantitative analysis of splice isoform expression, RNA editing rates, and whole gene expression by qRT-PCR, cells or tissue fragments were harvested in RNA lysis buffer and total RNA was extracted using RNeasy mini or micro extraction kits (QIAGEN, Germantown, MD) following the manufacturer's protocol including a DNase incubation step to digest any trace genomic DNA present. Levels of ADAR1 variants and LSC-specific transcripts were quantified by qRT-PCR as previously described.^14 RNA-editing site-specific qRT-PCR (RESSqPCR) was performed for variants in AZIN1 transcripts.^53 Additional species-specific primers were also designed to quantify intron retention rates in cells treated with Rebecsinib as a biomarker of response to RNA splicing modulation. […] Relative mRNA expression values were calculated using the 2^−ΔCT method, with normalization to untreated or vehicle-treated controls.^54
For multi-species biomarker development and transcript variant-specific qRT-PCR experiments, human AML cell lines KG-1a, MOLM-13, and HL-60, and rat leukemia cells RBL-1 were grown to confluence and treated with 1 μM Rebecsinib for 4 hr. Cells were collected and lysed in Qiagen RNA lysis buffer, and analyzed using the species-specific primers and qRT-PCR procedures described above.

[2] = tested on: human CD45+ADAR1-GFP+ cells and CD45+CD3+ADAR1-GFP+ cells; experiment: aNBM SAK148 PDX mice, flow cytometry; type: in vivo, human cells in NSG-SGM3 mice; settings: 10 mg/kg, IV, BIW×2
Procedure: Aged normal bone marrow (aNBM) PDX mouse models SAK148, which were established with 80-100K ADAR1-reporter transduced CD34+ cells by IV injection into NSG-SGM3 mice at the age of 5-6 weeks. When the models were ready, the mice were treated with either vehicle or rebecsinib (10 mg/kg, IV, BIW×2). The mice were sacrificed upon completion of the dosing plan, and single cells from PB, SP, and BM were collected and stained with mAbs for CD45, CD3, CD14, and CD19.

ADAR1p150 = ADAR1p150 protein by intracellular flow cytometry in high-risk MF samples; type: cell-based, human; settings: 72 hr
Procedure: (FIG. 28C) Flow cytometry-based quantification of ADAR1 p150 protein expression in high-risk MF samples after in vitro transduction of primary CD34^+ cells with ADAR1 nanoluc-GFP reporter or vector control (pCDH) followed by treatment with vehicle control (DMSO) or Rebecsinib (72 hr).
Flow cytometry for stem and progenitor cell surface antibody staining was performed as previously described.^14 For phospho-flow, a subset of samples was fixed and permeabilized, then blocked and stained with APC-conjugated ADAR1p150 antibody (cat ab269444, 1:25) and pSTAT3 APC (cat 17-9033-42, 1:10) (Table S2). Fractions were analyzed with the BD LSR FORTESSA™ (Sanford Consortium for Regenerative Medicine Stem Cell Core) and FLOWJO™ software (TreeStar, Ashland, OR).

[3] = Multi-species (rat, rabbit, NHP) pre-IND studies; type: in vivo
Procedure: […] Rat and rabbit studies included toxicology analyses, quantification of plasma levels of Rebecsinib, and necropsies to evaluate organ integrity after treatment. For NHP studies, health and ophthalmological evaluations were performed before and after dosing with Rebecsinib, and blood samples were collected for quantification of plasma levels of Rebecsinib and biomarker studies in PBMCs from treated and control animals. All monkeys were returned to the animal colony after the end of the observation period. Toxicokinetic values including mean plasma concentrations and t1/2 values were calculated according to CRO-approved protocols (Charles River and BASi).

sAML PDX mouse models = experiment: Survival of humanized sAML PDX mice; type: in vivo, human sAML cells in mice
Procedure: Here, we established humanized mouse models using CD34^+ stem cells isolated from the peripheral blood of adult secondary AML (sAML) patients or bone marrow of normal-aged donors (63-79 years old).
The mouse models were screened by staining the PB of each mouse with a human CD45 mAb. Mice with a threshold of human CD45^+ cells >1% were included in the treatment cohort for Rebecchini. The dosing plan involved administering Rebecsinib at a dose of 10 mg/kg, intravenously, twice a week for 2 weeks, with a total of 5 doses. Single cells were isolated from the mouse organs, including PB, SP, and BM, and subjected to staining with human stem cell markers and lineage cell markers.
These mice were monitored for survival throughout the study until they reached the endpoint. Survival data were analyzed using a Log-rank test.

[4] = tested on: MCL1-L, BCL-XL, BCL-2, SF3B1, SF3B3 transcripts; experiment: Splicing effects on LSC-enriched anti-apoptotic transcripts and splicing factor gene products; type: cell-based, human
Procedure: as §1, with “modulation. Specifically, for the two-step SYBR-green based assays, as previously described,^7,14,53 100-1000 ng of RNA were subjected to cDNA synthesis using the SUPERSCRIPT III™ (ThermoFisher Scientific) kit followed by qRT-PCR using SYBR GreenER (ThermoFisher Scientific) master mix according to the manufacturer's recommended procedures. qRT-PCR was performed using SYBR GREENER SUPER MIX™ (Life Technologies) on BioRad iQ5™, C1000 TOUCH™, or BioRad CFX384™ instruments.” for “modulation.”

Structure (SMILES): CC[C@H](OC)[C@@H](C)[C@H]1O[C@@H]1[C@@H](O)[C@H](C)/C=C/C=C(\C)[C@H]1OC(=O)C[C@H](O)CC[C@@](C)(O)[C@@H](OC(C)=O)/C=C/[C@@H]1C [Rebecsinib]
- intron retention in Sf3b family members [1]: rapidly induced
- CD45+CD3+GFP+ cells in PB, SP, and BM [2]: spares the cell populations
- CD45+GFP+ cells in PB, SP, and BM [2]: spares the cell populations
- ADAR1p150 protein expression (ADAR1p150): reduced ADAR1p150 protein expression
- systemic toxicity [3]: no evidence of systemic toxicity
- bioavailability and stability ([3]; clinically tractable formulation): favorable bioavailability and stability
- tolerability in rat, rabbit, NHP ([3]; pre-IND studies): well tolerated
- splicing modulation ([3]; rat, rabbit, NHP): dose-dependent increases in splicing modulation
- survival of sAML-engrafted mice (sAML PDX mouse models; compared to vehicle, fedratinib, and the combination of rebecsinib and fedratinib): survived significantly longer
- survival time versus single fedratinib (sAML PDX mouse models; single rebecsinib vs single fedratinib, p=0.016, Log-rank test): significantly longer
- survival time versus vehicle (sAML PDX mouse models; single rebecsinib vs vehicle, p=0.0003, Log-rank test): significantly longer
- LSC-enriched anti-apoptotic transcripts, including MCL1-L, BCL-XL, and BCL-2 [4]: reduces
- intron retention in splicing factor gene products, such as SF3B1 and SF3B3 [4]: induces marked intron retention
